Results on 1 substance are retold here after patent US20050137130A1, “Medical treatment” (priority 2001, published 2005).

Experiment [1] relates to Notch signalling from Jagged1 (A20-Jagged cells, human Jagged1). Nature of the experiment: Antagonism of A20-Jagged Notch signalling (N27#11 luciferase reporter). It counts as cell-based. As to conditions: A20-Jagged cells 1×10^5 per well; IgG4 as control. The source says: (§1) The IVS, IRES, Neo and pA elements were removed from plasmid pIRESneo2 (Clontech, USA) and inserted into a pUC cloning vector downstream of a chicken beta-actin promoter (eg see GenBank Accession No E02199). Mouse Delta-1 cDNA (eg see GenBank Accession No NM_007865) was inserted between the actin promoter and IVS elements and a sequence with multiple stop codons in all three reading frames was inserted between the Delta and IVS elements.
(§2) The resulting construct was transfected into A20 cells using electroporation and G418 to provide A20 cells expressing mouse Delta1 on their surfaces (A20-Delta).
Corresponding cells (A20-Jagged) were prepared using human Jagged1 cDNA (see e.g. GenBank Accession No U61276).
(§3) The procedure of Example was repeated using A20-Delta or A20-Jagged cells (1×10^5 per well) in place of CHO-Delta cells. IgG4 was used as a control.
(In general: In a reporter assay the amount or activity of a reporter protein is the signal.)

Experiment [2] has as its system Notch signalling from Delta (A20-Delta cells, mouse Delta1). Nature of the experiment: Antagonism of A20-Delta Notch signalling (N27#11 luciferase reporter). It counts as cell-based. As to conditions: A20-Delta cells 1×10^5 per well; IgG4 as control.
Description: as §1, §2, §3

As for “hDelta1-IgG4Fc: fusion protein comprising the extracellular domain of human Delta1 fused to the Fc domain of human IgG4 (SEQ ID NO: 5)”, the “inhibition of Notch signalling from Jagged1” value in experiment [1] is recorded as “able to inhbit Notch signalling”. Further, the “inhibition of Notch signalling from Delta” value in experiment [2] was “able to inhbit Notch signalling”.
